What was measured:
[1] = target: T1, Organic cation/carnitine transporter 2 (Mus musculus, UniProt Q9Z0E8); assay: TP_TRANSPORTER: uptake in OCTN2-expressing HEK293 cells; assay type: functional, cell-based; settings: human
T1 sequence (Q9Z0E8 whole entry): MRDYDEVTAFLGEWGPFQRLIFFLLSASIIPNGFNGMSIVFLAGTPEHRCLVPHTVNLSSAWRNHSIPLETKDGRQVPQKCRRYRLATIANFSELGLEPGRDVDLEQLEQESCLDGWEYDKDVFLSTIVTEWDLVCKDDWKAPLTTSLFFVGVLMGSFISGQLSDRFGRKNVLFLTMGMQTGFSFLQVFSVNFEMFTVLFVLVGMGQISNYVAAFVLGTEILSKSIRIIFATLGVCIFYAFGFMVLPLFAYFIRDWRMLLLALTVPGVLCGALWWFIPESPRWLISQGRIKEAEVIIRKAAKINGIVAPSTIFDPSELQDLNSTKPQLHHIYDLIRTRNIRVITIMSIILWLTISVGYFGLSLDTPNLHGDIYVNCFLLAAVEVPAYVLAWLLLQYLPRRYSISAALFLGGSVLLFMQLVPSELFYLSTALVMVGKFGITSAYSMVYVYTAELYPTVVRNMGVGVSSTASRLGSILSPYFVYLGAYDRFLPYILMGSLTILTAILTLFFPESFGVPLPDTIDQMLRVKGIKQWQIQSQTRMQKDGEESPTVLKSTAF

[2] = target: T2, OCTN2 (organic cation/carnitine transporter 2) (Mus musculus, UniProt Q9Z0E8); assay: TP_TRANSPORTER: inhibition of Carnitine uptake (Carnitine: 0.01 uM, Pyrilamine: 500 uM) in OCTN2-expressing HEK293 cells; assay type: functional, cell-based; parameters: scale not given: the % may be the effect or the level left; settings: human, HEK293 cells that express OCTN2, probe carnitine; read-out: Activity
T2 sequence (Q9Z0E8 whole entry): T1 sequence (Q9Z0E8 whole entry)

[3] = target: T2, OCTN2 (organic cation/carnitine transporter 2); assay: TP_TRANSPORTER: inhibition of Carnitine uptake (Carnitine: 0.01 uM, MPP+: 500 uM) in OCTN2-expressing HEK293 cells; assay type: functional, cell-based; parameters: scale not given: the % may be the effect or the level left; settings: human, HEK293 cells that express OCTN2, probe carnitine; read-out: Activity
[4] = target: T2, OCTN2 (organic cation/carnitine transporter 2); assay: TP_TRANSPORTER: inhibition of Carnitine uptake (Carnitine: 0.01 uM, Lidocaine: 500 uM) in OCTN2-expressing HEK293 cells; assay type: functional, cell-based; parameters: scale not given: the % may be the effect or the level left; settings: human, HEK293 cells that express OCTN2, probe carnitine; read-out: Activity
[5] = target: T1, Organic cation/carnitine transporter 2; assay: TP_TRANSPORTER: inhibition of Carnitine uptake (Carnitine: 0.01 uM, PAH: 500 uM) in OCTN2-expressing HEK293 cells; assay type: functional, cell-based; settings: human, hek293, 500 µM
[6] = target: T2, OCTN2 (organic cation/carnitine transporter 2); assay: TP_TRANSPORTER: inhibition of Carnitine uptake (Carnitine: 0.01 uM, Serotonin: 5000 uM) in OCTN2-expressing HEK293 cells; assay type: functional, cell-based; parameters: scale not given: the % may be the effect or the level left; settings: human, HEK293 cells that express OCTN2, probe carnitine; read-out: Activity
[7] = target: T2, OCTN2 (organic cation/carnitine transporter 2); assay: in vitro; settings: human, HEK293 cells that express OCTN2, probe carnitine
Description: TP_TRANSPORTER: inhibition of Carnitine uptake (Carnitine: 0.01 uM, Dapamine: 5000 uM) in OCTN2-expressing HEK293 cells

[8] = target: T2, OCTN2 (organic cation/carnitine transporter 2); assay: in vitro; settings: human, HEK293 cells that express OCTN2, probe carnitine; remark: listed apart in the source
Description: TP_TRANSPORTER: inhibition of Carnitine uptake (Carnitine: 0.01 uM, TEA: 500 uM) in OCTN2-expressing HEK293 cells

[9] = target: T2, OCTN2 (organic cation/carnitine transporter 2); assay: in vitro; settings: human, HEK293 cells that express OCTN2, probe carnitine; remark: listed apart in the source
Description: TP_TRANSPORTER: inhibition of Carnitine uptake (Carnitine: 0.01 uM, Thiamine: 5000 uM) in OCTN2-expressing HEK293 cells

[10] = target: T1, Organic cation/carnitine transporter 2; assay: TP_TRANSPORTER: inhibition of Carnitine uptake (Carnitine: 0.01 uM, alpha-KG: 500 uM) in OCTN2-expressing HEK293 cells; assay type: functional, cell-based; settings: human, hek293, 500 µM
[11] = target: T1, Organic cation/carnitine transporter 2; assay: TP_TRANSPORTER: inhibition of Carnitine uptake (Carnitine: 0.01 uM, NMN: 500 uM) in OCTN2-expressing HEK293 cells; assay type: functional, cell-based; settings: human, hek293, 500 µM
[12] = target: T2, OCTN2 (organic cation/carnitine transporter 2); assay: TP_TRANSPORTER: inhibition of Carnitine uptake (Carnitine: 0.01 uM, Procainamide: 500 uM) in OCTN2-expressing HEK293 cells; assay type: functional, cell-based; parameters: scale not given: the % may be the effect or the level left; settings: human, HEK293 cells that express OCTN2, probe carnitine; read-out: Activity
[13] = target: T2, OCTN2 (organic cation/carnitine transporter 2); assay: TP_TRANSPORTER: inhibition of Carnitine uptake (Carnitine: 0.01 uM, Norepinephrine: 5000 uM) in OCTN2-expressing HEK293 cells; assay type: functional, cell-based; parameters: scale not given: the % may be the effect or the level left; settings: human, HEK293 cells that express OCTN2, probe carnitine; read-out: Activity
[14] = target: T1, Organic cation/carnitine transporter 2; assay: TP_TRANSPORTER: inhibition of Carnitine uptake (Carnitine: 0.01 uM, Guanidine: 500 uM) in OCTN2-expressing HEK293 cells; assay type: functional, cell-based; settings: human, hek293, 500 µM
[15] = target: T2, OCTN2 (organic cation/carnitine transporter 2); assay: TP_TRANSPORTER: inhibition of Carnitine uptake (Carnitine: 0.01 uM, Quinidine: 500 uM) in OCTN2-expressing HEK293 cells; assay type: functional, cell-based; parameters: scale not given: the % may be the effect or the level left; settings: human, HEK293 cells that express OCTN2, probe carnitine; read-out: Activity
[16] = target: T2, OCTN2 (organic cation/carnitine transporter 2); assay: TP_TRANSPORTER: inhibition of Carnitine uptake (Carnitine: 0.01 uM, Acetyl-beta-methylcholine: 500 uM) in OCTN2-expressing HEK293 cells; assay type: functional, cell-based; parameters: scale not given: the % may be the effect or the level left; settings: human, HEK293 cells that express OCTN2, probe carnitine; read-out: Activity
[17] = target: T2, OCTN2 (organic cation/carnitine transporter 2); assay: TP_TRANSPORTER: inhibition of Carnitine uptake (Carnitine: 0.01 uM, Diphenhydramine: 500 uM) in OCTN2-expressing HEK293 cells; assay type: functional, cell-based; parameters: scale not given: the % may be the effect or the level left; settings: human, HEK293 cells that express OCTN2, probe carnitine; read-out: Activity
[18] = target: T2, OCTN2 (organic cation/carnitine transporter 2); assay: TP_TRANSPORTER: inhibition of Carnitine uptake (Carnitine: 0.01 uM, Acetylcholine: 5000 uM) in OCTN2-expressing HEK293 cells; assay type: functional, cell-based; parameters: scale not given: the % may be the effect or the level left; settings: human, HEK293 cells that express OCTN2, probe carnitine; read-out: Activity
[19] = target: T2, OCTN2 (organic cation/carnitine transporter 2); assay: TP_TRANSPORTER: inhibition of Carnitine uptake (Carnitine: 0.01 uM, Verapamil: 500 uM) in OCTN2-expressing HEK293 cells; assay type: functional, cell-based; parameters: scale not given: the % may be the effect or the level left; settings: human, HEK293 cells that express OCTN2, probe carnitine; read-out: Activity
[20] = target: T2, OCTN2 (organic cation/carnitine transporter 2); assay: in vitro; settings: human, HEK293 cells that express OCTN2, probe carnitine; remark: listed apart in the source
Description: TP_TRANSPORTER: inhibition of Carnitine uptake (Carnitine: 0.01 uM, Choline: 500 uM) in OCTN2-expressing HEK293 cells

COc1ccc(CN(CCN(C)C)c2ccccn2)cc1 [PYRILAMINE]
Activity [1]: substrate [+] | activity at 500 µM [2]: 36.3%

C[n+]1ccc(-c2ccccc2)cc1
Activity [1]: substrate [+] | activity at 500 µM [3]: 72.9%

CCN(CC)CC(=O)Nc1c(C)cccc1C [LIDOCAINE]
activity at 500 µM [4]: 57.1%

Nc1ccc(C(=O)NCC(=O)O)cc1 [AMINOHIPPURIC ACID]
Activity [5]: is not an inhibitor [-] | Activity [1]: is not a substrate [-]

NCCc1c[nH]c2ccc(O)cc12 [SEROTONIN]
activity at 5000 µM [6]: 51.3%

NCCc1ccc(O)c(O)c1 [DOPAMINE]
activity at 5000 µM [7]: 70.9%

CC[N+](CC)(CC)CC [TETRYLAMMONIUM]
activity at 500 µM [8]: 15.4%

Cc1ncc(C[n+]2csc(CCO)c2C)c(N)n1 [THIAMINE ION]
activity at 5000 µM [9]: 65.9%

O=C(O)CCC(=O)C(=O)O [ALPHA-KETOGLUTARIC ACID]
Activity [10]: is not an inhibitor [-]

CNC(=O)c1cccnc1 [NICOTINYL METHYLAMIDE]
Activity [11]: is not an inhibitor [-]

CC(=O)O[C@H](CC(=O)[O-])C[N+](C)(C)C [ACETYLCARNITINE]
Activity [1]: substrate [+]

CCN(CC)CCNC(=O)c1ccc(N)cc1 [PROCAINAMIDE]
activity at 500 µM [12]: 81.3%

NC[C@H](O)c1ccc(O)c(O)c1 [NOREPINEPHRINE]
activity at 5000 µM [13]: 70.9%

N=C(N)N [GUANIDINE]
Activity [14]: is not an inhibitor [-]

C=C[C@H]1C[N@@]2CC[C@H]1C[C@@H]2[C@@H](O)c1ccnc2ccc(OC)cc12 [QUINIDINE]
activity at 500 µM [15]: 6.1%

CC(=O)OC(C)C[N+](C)(C)C (centres undefined)
activity at 500 µM [16]: 82.5%

CN(C)CCOC(c1ccccc1)c1ccccc1 [DIPHENHYDRAMINE]
activity at 500 µM [17]: 43.6%

CC(=O)OCC[N+](C)(C)C [ACETYLCHOLINE]
activity at 5000 µM [18]: 34.2%

COc1ccc(CCN(C)CCCC(C#N)(c2ccc(OC)c(OC)c2)C(C)C)cc1OC (centres undefined) [VERAPAMIL]
Activity [1]: substrate [+] | activity at 500 µM [19]: 1.3%

C[N+](C)(C)CCO [CHOLINE]
activity at 500 µM [20]: 74.6%

From ChEMBL document CHEMBL2074332, “Molecular and physiological evidence for multifunctionality of carnitine/organic cation transporter OCTN2” (Mol Pharmacol, 2001)
